Results from US6344455B1 (Warner-Lambert Company, priority 1998, dated 2002).
Read-outs that look alike come from different tables or passages of the source.

Assays:
[1] = test system: VEGF secretion from A431 cells; conditions: for VEGF secretion: 48 hours
[2] = test system: heregulin-mediated tyrosine phosphorylation in MDA-MB-453 cells; assay: Heregulin-dependent tyrosine phosphorylation assay, MDA-MB-453 cells, western blot; assay type: cell-based; conditions: Homo sapiens, 2 hours compound, 10 ng/mL heregulin 5 minutes, read-out: Heregulin-Medidated Tyrosine Phosphorylation IC50
Protocol: Proteins in the lysate were separated by polyacrylamide gel electrophoresis and electrophoretically transferred to nitrocellulose. […] Band intensities were determined with a laser densitometer.

[3] = test system: human epidermoid carcinoma, A431; assay: In vivo tumor inhibition assay, A431 tumor fragments s.c. in nude mice; conditions: for Tumor Growth Delay / Tumor Growth Inhibition: 15 consecutive days; for Tumor Growth Delay: isethionate salt in water, T-C to 750 mg; for Tumor Growth Inhibition: growth delay divided by number of treatments times 100%
Protocol: The human epidermoid carcinoma, A431, was propagated in vivo by serial transplantation. This tumor model was selected for these studies because of its known dependence upon the EGF receptor for growth and its early stage responsiveness to monoclonal antibody therapy in vivo. In this experiment nude mice weighing 18-22 grams were implanted subcutaneously with 30 mg A431 tumor fragments in the region of the right axilla on Day 0. Tumors were allowed to grow to a mass of 100 to 150 mg, at which time the tumor bearing animals were randomized and distributed into treatment cages. […] The isethionate salts can be prepared by titrating the compounds into solution with 2 equivalents of isethionic acid. Treatment was based on average group weight. The control animals received water. Evaluation of the experiment was based on tumor growth delay, T-C, defined as the difference, in days, for the treated and control tumors to reach an evaluation size of 750 mg. Data can also be represented as the percentage of tumor growth inhibition, defined as the tumor growth delay divided by the number of treatments times 100%. […] Statistical analysis was performed using JMP for Macintosh (SAS Institute, Inc., Cary, N.C. ).

C=CC(=O)Nc1cc2c(Nc3ccc(F)c(Cl)c3)ncnc2cc1OCCCN1CCOCC1 [compound 1, N-[4-(3-chloro-4-fluoro-phenylamino)-7-(3-morpholin-4-yl-propoxy)-quinazolin-6-yl]-acrylamide] was tested, and the VEGF secretion ([1]; 10 ng/mL EGF stimulated, 0.1 μM compound) was 1490 ± 170 pg/10^5 cells ± SE, the VEGF secretion ([1]; 10 ng/mL EGF stimulated, 0.5 μM compound) was 560 ± 29 pg/10^5 cells ± SE and the “effect on EGF- or TGF-alpha stimulated VEGF secretion” value ([1]; 0.5 μM, in words) was “blocked”. The VEGF secretion ([1]; TGF-alpha stimulated, 0.1 μM compound) was 1976 ± 37 pg/10^5 cells ± SE, the VEGF secretion ([1]; TGF-alpha stimulated, 0.5 μM compound) was 766 ± 75 pg/10^5 cells ± SE and the “effect on the basal level of VEGF secretion from A431 cells” value ([1]; basal, in words) was “appeared to inhibit”. The VEGF secretion ([1]; serum free media (basal), 0.1 μM compound) was 280 ± 41 pg/10^5 cells ± SE, the VEGF secretion ([1]; serum free media (basal), 0.5 μM compound) was 250 ± 46 pg/10^5 cells ± SE and the IC50 [2] was 9 nM. The “Tumor Growth Delay” value ([3]; 5 mg/kg perorally) was 53.2 days, the “Tumor Growth Inhibition” value ([3]; 5 mg/kg perorally) was 355% and the “Tumor Growth Delay” value ([3]; 18 mg/kg perorally) was 41.3 days. For the same molecule, the “Tumor Growth Inhibition” value ([3]; 18 mg/kg perorally) was 275% and the “antitumor response T-C” value ([3]; A431 tumors in vivo, dose not given) was 53 days.
